One may read the IC50 as the concentration that inhibits the measured activity by half.

This test concerns the target T1, recombinant human GR (Homo sapiens, UniProt P04150).
T1 construct: purchased Panvera/Invitrogen P2812 (kit P2893)
T1 sequence (P04150 1-777): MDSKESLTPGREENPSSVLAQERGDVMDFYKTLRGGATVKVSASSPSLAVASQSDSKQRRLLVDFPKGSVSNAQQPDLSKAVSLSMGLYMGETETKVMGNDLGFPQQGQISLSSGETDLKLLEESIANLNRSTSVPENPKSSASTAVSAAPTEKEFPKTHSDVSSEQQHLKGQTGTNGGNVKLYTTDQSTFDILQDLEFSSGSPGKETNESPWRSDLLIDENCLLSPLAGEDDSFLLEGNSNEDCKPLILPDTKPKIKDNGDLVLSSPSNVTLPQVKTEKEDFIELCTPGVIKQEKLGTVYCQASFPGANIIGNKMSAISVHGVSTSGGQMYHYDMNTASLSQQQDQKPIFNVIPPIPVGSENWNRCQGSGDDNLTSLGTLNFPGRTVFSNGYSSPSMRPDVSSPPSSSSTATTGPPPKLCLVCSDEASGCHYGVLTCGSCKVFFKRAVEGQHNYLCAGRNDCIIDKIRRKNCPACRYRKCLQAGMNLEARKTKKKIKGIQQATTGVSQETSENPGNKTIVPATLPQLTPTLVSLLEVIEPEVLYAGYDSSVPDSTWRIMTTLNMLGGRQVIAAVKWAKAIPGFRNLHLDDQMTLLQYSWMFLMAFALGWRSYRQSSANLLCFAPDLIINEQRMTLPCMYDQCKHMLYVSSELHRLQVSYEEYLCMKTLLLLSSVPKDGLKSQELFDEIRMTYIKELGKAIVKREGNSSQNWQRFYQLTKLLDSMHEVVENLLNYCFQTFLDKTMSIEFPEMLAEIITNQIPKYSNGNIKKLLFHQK
Nature of the test: Human Glucocorticoid Receptor (GR) Assay, fluorescence polarization. Particulars: GS Red tracer, incubated 2 h at r.t., XLfit model 205, read-out: GRhuFL_FP_v2 Mean IC50. In kind it is binding. The method, boiled down:
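Fluorescence polarization kit assay: recombinant GR and GS Red fluorescent ligand with Stabilizing Peptide and DTT in potassium phosphate/sodium molybdate/EDTA screening buffer. Plates incubated 2 h in the dark at r.t.; DMSO served as 0% and dexamethasone as 100% control.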

Turning to `Cc1ccc([C@@H](Oc2ccc3c(cnn3-c3ccc(F)cc3)c2)[C@H](C)NC(=O)C(F)(F)F)cc1C` [Example 149, N-[(1R,2S)-1-(3,4-dimethylphenyl)-1-[1-(4-fluorophenyl)indazol-5-yl]oxy-propan-2-yl]-2,2,2-trifluoro-acetamide], the 50% inhibitory concentration (IC50) was found to be 5.5 nM.
For `COc1cccc([C@@H](Oc2ccc3c(cnn3-c3ccc(F)cc3)c2)[C@H](C)NC(=O)c2ccc(C)s2)c1` [Example 131, N-[(1R,2S)-1-[1-(4-fluorophenyl)indazol-5-yl]oxy-1-(3-methoxyphenyl)propan-2-yl]-5-methyl-thiophene-2-carboxamide] the value was 4 nM; for `COc1c(C)cc([C@@H](Oc2ccc3c(cnn3-c3ccc(F)cc3)c2)[C@H](C)NC(=O)C(C)(C)C)cc1C` [Example 182, N-[(1R,2S)-1-[1-(4-fluorophenyl)indazol-5-yl]oxy-1-(4-methoxy-3,5-dimethyl-phenyl)propan-2-yl]-2,2-dimethyl-propanamide], 5.5 nM.
In the case of `C[C@H](NC(=O)C(=O)O)[C@H](Oc1ccc2c(cnn2-c2ccc(F)cc2)c1)c1ccccc1` [Example 36, [(1R,2S)-1-[1-(4-fluorophenyl)indazol-5-yl]oxy-1-phenyl-propan-2-yl]carbamoylformic acid] it was 10 nM; in that of `COc1cccc([C@@H](Oc2ccc3c(cnn3-c3ccc(F)cc3)c2)[C@H](C)NC(=O)c2cc[nH]n2)c1` [Example 279, N-[(1R,2S)-1-[1-(4-fluorophenyl)indazol-5-yl]oxy-1-(3-methoxyphenyl)propan-2-yl]-1H-pyrazole-3-carboxamide], 3.8 nM; in that of `Cc1ccc(C)c([C@@H](Oc2ccc3c(cnn3-c3ccc(F)cc3)c2)[C@H](C)NC(=O)C(C)(C)CO)c1` [Example 254, N-[(1R,2S)-1-(2,5-dimethylphenyl)-1-[1-(4-fluorophenyl)indazol-5-yl]oxy-propan-2-yl]-3-hydroxy-2,2-dimethyl-propanamide], 8.5 nM.
With `COc1cccc([C@@H](Oc2ccc3c(cnn3-c3ccc(F)cc3)c2)[C@H](C)NC(=O)c2scnc2C)c1` [Example 289, N-[(1R,2S)-1-[1-(4-fluorophenyl)indazol-5-yl]oxy-1-(3-methoxyphenyl)propan-2-yl]-4-methyl-1,3-thiazole-5-carboxamide], the IC50 amounted to 3.9 nM.
In the case of `COc1cccc([C@@H](Oc2ccc3c(cnn3-c3ccc(F)cc3)c2)[C@H](C)NC(=O)c2nc[nH]n2)c1` [Example 281, N-[(1R,2S)-1-[1-(4-fluorophenyl)indazol-5-yl]oxy-1-(3-methoxyphenyl)propan-2-yl]-1H-1,2,4-triazole-3-carboxamide] it was 3.8 nM.
Regarding `Cc1ccc(C)c([C@@H](Oc2ccc3c(cnn3-c3ccc(F)cc3)c2)[C@H](C)NC(=O)C(F)(F)F)c1` [Example 153, N-[(1R,2S)-1-(2,5-dimethylphenyl)-1-[1-(4-fluorophenyl)indazol-5-yl]oxy-propan-2-yl]-2,2,2-trifluoro-acetamide], the 50% inhibitory concentration (IC50) was found to be 3.6 nM.
For `Cc1cc2c(cnn2-c2ccc(F)cc2)cc1O[C@H](c1ccccc1)[C@H](C)NC(=O)C(F)(F)F` [Example 62, 2,2,2-Trifluoro-N-[(1R,2S)-1-[1-(4-fluorophenyl)-6-methyl-indazol-5-yl]oxy-1-phenyl-propan-2-yl]acetamide] the value was 3.5 nM.
For `COc1cccc([C@@H](Oc2ccc3c(cnn3-c3ccc(F)cc3)c2)[C@H](C)NC(=O)CNC(C)=O)c1` [Example 269, N-[[(1R,2S)-1-[1-(4-fluorophenyl)indazol-5-yl]oxy-1-(3-methoxyphenyl)propan-2-yl]carbamoylmethyl]acetamide] the value was 12 nM; for `Cc1cc(F)ccc1[C@@H](Oc1ccc2c(cnn2-c2ccc(F)cc2)c1)[C@H](C)NC(=O)C(C)(C)CO` [Example 256, N-[(1R,2S)-1-(4-fluoro-2-methyl-phenyl)-1-[1-(4-fluorophenyl)indazol-5-yl]oxy-propan-2-yl]-3-hydroxy-2,2-dimethyl-propanamide], 5.3 nM.
For `Cc1c(F)cccc1[C@@H](Oc1ccc2c(cnn2-c2ccc(F)cc2)c1)[C@H](C)NC(=O)C(C)(C)C` [Example 190, N-[(1R,2S)-1-(3-fluoro-2-methyl-phenyl)-1-[1-(4-fluorophenyl)indazol-5-yl]oxy-propan-2-yl]-2,2-dimethyl-propanamide] the value was 4.5 nM; for `COCC(=O)N[C@@H](C)[C@H](Oc1ccc2c(cnn2-c2ncccn2)c1)c1ccccc1` [Example 120, 2-Methoxy-N-[1-methyl-2-phenyl-2-(1-pyrimidin-2-yl-1H-indazol-5-yloxy)-ethyl]-acetamide], 210 nM.
In the case of `COc1cccc([C@@H](Oc2ccc3c(cnn3-c3ccc(F)cc3)c2)[C@H](C)NC(=O)c2cc(C)[nH]n2)c1` [Example 282, N-[(1R,2S)-1-[1-(4-fluorophenyl)indazol-5-yl]oxy-1-(3-methoxyphenyl)propan-2-yl]-5-methyl-1H-pyrazole-3-carboxamide], the IC50 came to 2.4 nM.
In the case of `COc1cccc([C@@H](Oc2ccc3c(cnn3-c3ccc(F)cc3)c2)[C@H](C)NC(=O)c2ccncn2)c1` [Example 88, N-((1R,2S)-1-(1-(4-fluorophenyl)-1H-indazol-5-yloxy)-1-(3-methoxyphenyl)propan-2-yl)pyrimidine-4-carboxamide] it was 3.2 nM.
For `C[C@H](NC(=O)C(F)(F)F)[C@H](Oc1cc2cnn(-c3ccc(F)cc3)c2cc1Cl)c1ccc(F)cc1` (racemic) [Example 99, N-[(1RS,2SR)-1-[6-chloro-1-(4-fluorophenyl)indazol-5-yl]oxy-1-(4-fluorophenyl)propan-2-yl]-2,2,2-trifluoro-acetamide], the concentration for half-maximal inhibition (IC50) worked out at 3.8 nM.
Consider `COc1cccc([C@@H](Oc2ccc3c(cnn3-c3ccc(F)cc3)c2)[C@H](C)NC(=O)c2ccc(Cl)s2)c1` [Example 295, 5-chloro-N-[(1R,2S)-1-[1-(4-fluorophenyl)indazol-5-yl]oxy-1-(3-methoxyphenyl)propan-2-yl]thiophene-2-carboxamide], for which the IC50 was found to be 5.7 nM.
For `CC(C)[C@@H](C)NC(=O)N[C@@H](C)[C@H](Oc1ccc2c(cnn2-c2ccc(F)cc2)c1)c1ccccc1` [Example 107] the value was 4 nM; for `Cc1ccc(F)cc1[C@@H](Oc1ccc2c(cnn2-c2ccc(F)cc2)c1)[C@H](C)NC(=O)C(C)(F)F` [Example 234, 2,2-difluoro-N-[(1R,2S)-1-(5-fluoro-2-methyl-phenyl)-1-[1-(4-fluorophenyl)indazol-5-yl]oxy-propan-2-yl]propanamide], 6.4 nM.
For `C[C@H](NC(=O)C(F)(F)F)[C@H](Oc1ccc2c(cnn2-c2ccc(F)cc2)c1)c1ccc(C(C)(C)C)cc1` [Example 163, 2,2,2-trifluoro-N-[(1R,2S)-1-[1-(4-fluorophenyl)indazol-5-yl]oxy-1-(4-tert-butylphenyl)propan-2-yl]acetamide] the value was 16 nM; for `Cc1ccc(F)cc1[C@@H](Oc1ccc2c(cnn2-c2ccc(F)cc2)c1)[C@H](C)NC(=O)C(C)(C)F` [Example 249, 2-fluoro-N-[(1R,2S)-1-(5-fluoro-2-methyl-phenyl)-1-[1-(4-fluorophenyl)indazol-5-yl]oxy-propan-2-yl]-2-methyl-propanamide], 5 nM.
